From patent US9765105B2, “Macrolide compound” (Pulike Biological Engineering, Inc., priority 2013, dated 2017)

Columns and labels:
Assay in all cases: in vitro susceptibility, MIC by mini broth dilution
Assay type in all cases: cell-based
[1] = tested on: Staphylococcus aureus CVCC26003; details: strain CVCC26003
In short: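 MICs were determined by mini broth dilution under NCCLS standards in CAMHB, using revived S. aureus CVCC26003 subcultured 20 h at 35° C. Compounds were two-fold serially diluted in DMSO across 11 wells, with duplicate rows. Bacterial suspension was diluted 1:200 in medium before inoculation.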

[2] = tested on: Pasteurella multocida CVCC399; details: strain CVCC399
In short: (§1)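 MICs determined by mini broth dilution following NCCLS standards, using two-fold serial dilutions of compound in DMSO across 11 gradients, in duplicate rows. Strains were revived and subcultured at 35 °C for 20 h. Bacterial suspension was diluted 1:200 in liquid medium.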

Haemophilus parasuis = tested on: Haemophilus parasuis
In short: as §1

[3] = tested on: Streptococcus equines CVCC556; details: strain CVCC556
In short: as §1

[4] = tested on: Actinobacillus pleuropneumoniae CVCC262; details: strain CVCC262
In short: as §1

Structure (SMILES)	MIC values, Staphylococcus aureus CVCC26003 [1]	MIC values, Pasteurella multocida CVCC399 [2]	MIC values, Haemophilus parasuis (Haemophilus parasuis)	MIC values, Streptococcus equines CVCC556 [3]	MIC values, Actinobacillus pleuropneumoniae CVCC262 [4]
CCCN1C[C@H](C)[C@@H](O)[C@](C)(O)[C@@H](CC)OC(=O)[C@H](C)[C@@H](O[C@H]2C[C@@](C)(OC)[C@](O)(CNc3cccnc3Cl)[C@H](C)O2)[C@H](C)[C@@H](O[C@@H]2O[C@H](C)C[C@H](N(C)C)[C@H]2O)[C@](C)(O)C[C@H]1C [syzx-218]	2 ug/mi	8 ug/mi	4 ug/mi	0.25 ug/mi	4 ug/mi
CCCN1C[C@H](C)[C@@H](O)[C@](C)(O)[C@@H](CC)OC(=O)[C@H](C)[C@@H](O[C@H]2C[C@@](C)(OC)[C@](O)(CNC(=O)c3ccccc3)[C@H](C)O2)[C@H](C)[C@@H](O[C@@H]2O[C@H](C)C[C@H](N(C)C)[C@H]2O)[C@](C)(O)C[C@H]1C [syzx-219]	2 ug/mi	8 ug/mi	4 ug/mi	0.5 ug/mi	4 ug/mi
CCCN1C[C@H](C)[C@@H](O)[C@](C)(O)[C@@H](CC)OC(=O)[C@H](C)[C@@H](O[C@H]2C[C@@](C)(OC)[C@](O)(CNc3nc(OC)cc(OC)n3)[C@H](C)O2)[C@H](C)[C@@H](O[C@@H]2O[C@H](C)C[C@H](N(C)C)[C@H]2O)[C@](C)(O)C[C@H]1C [syzx-222]	4 ug/mi	8 ug/mi	2 ug/mi	0.25 ug/mi	2 ug/mi
CCCN1C[C@H](C)[C@@H](O)[C@](C)(O)[C@@H](CC)OC(=O)[C@H](C)[C@@H](O[C@H]2C[C@@](C)(OC)[C@](O)(CNc3cccc(Br)c3)[C@H](C)O2)[C@H](C)[C@@H](O[C@@H]2O[C@H](C)C[C@H](N(C)C)[C@H]2O)[C@](C)(O)C[C@H]1C [syzx-223]	0.25 ug/mi	0.5 ug/mi	0.25 ug/mi	0.25 ug/mi	0.25 ug/mi
CCCN1C[C@H](C)[C@@H](O)[C@](C)(O)[C@@H](CC)OC(=O)[C@H](C)[C@@H](O[C@H]2C[C@@](C)(OC)[C@](O)(CNc3cc(F)ccc3[N+](=O)[O-])[C@H](C)O2)[C@H](C)[C@@H](O[C@@H]2O[C@H](C)C[C@H](N(C)C)[C@H]2O)[C@](C)(O)C[C@H]1C [syzx-226]	2 ug/mi	8 ug/mi	4 ug/mi	0.25 ug/mi	4 ug/mi
CCCN1C[C@H](C)[C@@H](O)[C@](C)(O)[C@@H](CC)OC(=O)[C@H](C)[C@@H](O[C@H]2C[C@@](C)(OC)[C@](O)(CNc3ccc(I)cc3)[C@H](C)O2)[C@H](C)[C@@H](O[C@@H]2O[C@H](C)C[C@H](N(C)C)[C@H]2O)[C@](C)(O)C[C@H]1C [syzx-227]	2 ug/mi	8 ug/mi	4 ug/mi	0.5 ug/mi	4 ug/mi
CCCN1C[C@H](C)[C@@H](O)[C@](C)(O)[C@@H](CC)OC(=O)[C@H](C)[C@@H](O[C@H]2C[C@@](C)(OC)[C@](O)(CNc3ccc([N+](=O)[O-])cc3[N+](=O)[O-])[C@H](C)O2)[C@H](C)[C@@H](O[C@@H]2O[C@H](C)C[C@H](N(C)C)[C@H]2O)[C@](C)(O)C[C@H]1C [syzx-228]	2 ug/mi	2 ug/mi	1 ug/mi	0.25 ug/mi	1 ug/mi
CCCN1C[C@H](C)[C@@H](O)[C@](C)(O)[C@@H](CC)OC(=O)[C@H](C)[C@@H](O[C@H]2C[C@@](C)(OC)[C@](O)(CNc3ccc(C)cc3C)[C@H](C)O2)[C@H](C)[C@@H](O[C@@H]2O[C@H](C)C[C@H](N(C)C)[C@H]2O)[C@](C)(O)C[C@H]1C [syzx-229]	4 ug/mi	16 ug/mi	4 ug/mi	0.25 ug/mi	4 ug/mi
CCCN1C[C@H](C)[C@@H](O)[C@](C)(O)[C@@H](CC)OC(=O)[C@H](C)[C@@H](O[C@H]2C[C@@](C)(OC)[C@](O)(CNc3cc(C(F)(F)F)cc(C(F)(F)F)c3)[C@H](C)O2)[C@H](C)[C@@H](O[C@@H]2O[C@H](C)C[C@H](N(C)C)[C@H]2O)[C@](C)(O)C[C@H]1C [syzx-230]	4 ug/mi	8 ug/mi	2 ug/mi	0.25 ug/mi	2 ug/mi
CCCN1C[C@H](C)[C@@H](O)[C@](C)(O)[C@@H](CC)OC(=O)[C@H](C)[C@@H](O[C@H]2C[C@@](C)(OC)[C@](O)(CNc3ccc(Cl)cc3Cl)[C@H](C)O2)[C@H](C)[C@@H](O[C@@H]2O[C@H](C)C[C@H](N(C)C)[C@H]2O)[C@](C)(O)C[C@H]1C [syzx-231]	0.25 ug/mi	0.5 ug/mi	0.25 ug/mi	0.25 ug/mi	0.25 ug/mi
CCCN1C[C@H](C)[C@@H](O)[C@](C)(O)[C@@H](CC)OC(=O)[C@H](C)[C@@H](O[C@H]2C[C@@](C)(OC)[C@](O)(CNc3cc(Cl)ccc3C)[C@H](C)O2)[C@H](C)[C@@H](O[C@@H]2O[C@H](C)C[C@H](N(C)C)[C@H]2O)[C@](C)(O)C[C@H]1C [syzx-234]	2 ug/mi	8 ug/mi	4 ug/mi	0.25 ug/mi	4 ug/mi
CCCN1C[C@H](C)[C@@H](O)[C@](C)(O)[C@@H](CC)OC(=O)[C@H](C)[C@@H](O[C@H]2C[C@@](C)(OC)[C@](O)(CNc3cc(Cl)nc(Cl)n3)[C@H](C)O2)[C@H](C)[C@@H](O[C@@H]2O[C@H](C)C[C@H](N(C)C)[C@H]2O)[C@](C)(O)C[C@H]1C [syzx-237]	2 ug/mi	8 ug/mi	4 ug/mi	0.25 ug/mi	4 ug/mi
CCCN1C[C@H](C)[C@@H](O)[C@](C)(O)[C@@H](CC)OC(=O)[C@H](C)[C@@H](O[C@H]2C[C@@](C)(OC)[C@](O)(Cn3ccnc3C)[C@H](C)O2)[C@H](C)[C@@H](O[C@@H]2O[C@H](C)C[C@H](N(C)C)[C@H]2O)[C@](C)(O)C[C@H]1C [syzx-238]	1 ug/mi	4 ug/mi	1 ug/mi	0.25 ug/mi	1 ug/mi
